Test results reported in PMC10799935, “Discovery of a peripheral 5HT2A antagonist as a clinical candidate for metabolic dysfunction-associated steatohepatitis” (Nature Communications, 2024).

Biological target: 5HT2A (Homo sapiens, UniProt P28223)
Assay: Human 5HT2A inhibition assay (FLIPR calcium 6, 5HT stimulus, stably transfected HEK293 cells)
Type: cell-based
Parameters: expressed in transfected cells; host or cells: HEK293
Details: for inhibition at 1 µM: HEK293, 1 μM, read-out: % Inhibition at 1 μM (SD)
Procedure: The derivatives were evaluated at a concentration of 1 μM for their antagonist activity on the 5HT2A receptor (Tables 1–3)[33],[34]. […] The cells were stained with 100 μL of cytosolic calcium dye using the FLIPR calcium 6 assay solution (Molecular devices, #R8190) supplemented with 2.5 mM probenecid (Sigma; P8761) and incubated for 1 h at 37 °C. After 1 h, the designated amount of the compound was treated in each well and incubated for another 1 h at 37 °C. […] Experimental conditions for the 5HT subtypes can be found in the Supporting Information (Supplementary Table 1).

5HT2A, sequence (P28223 whole entry): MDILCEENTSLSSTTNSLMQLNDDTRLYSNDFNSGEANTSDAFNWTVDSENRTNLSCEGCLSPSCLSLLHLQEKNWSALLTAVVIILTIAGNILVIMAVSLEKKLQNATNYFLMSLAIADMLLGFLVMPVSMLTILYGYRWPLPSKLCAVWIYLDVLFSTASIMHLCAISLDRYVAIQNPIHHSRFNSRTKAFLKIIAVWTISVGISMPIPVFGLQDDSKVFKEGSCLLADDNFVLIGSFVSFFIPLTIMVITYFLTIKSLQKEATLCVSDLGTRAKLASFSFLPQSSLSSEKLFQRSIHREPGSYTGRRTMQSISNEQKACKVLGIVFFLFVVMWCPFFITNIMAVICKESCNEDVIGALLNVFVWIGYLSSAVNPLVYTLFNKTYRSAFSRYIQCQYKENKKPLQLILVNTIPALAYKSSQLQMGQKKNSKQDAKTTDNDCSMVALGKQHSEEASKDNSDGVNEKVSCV

`O=C1Cc2cc(C(=O)CN3CCC(=C4c5ccc(Cl)cc5CCc5cccnc54)CC3)c(Cl)cc2N1` [Compound 8c] was tested, and the “% Inhibition at 1 μM (SD)” value was 73.02 ± 0.51% and the inhibition at 1 µM was 73%.
`O=C1Cc2cc(C(=O)CN3CCC(=C4c5ccc(Cl)cc5CCc5cccnc54)CC3)ccc2N1` [Compound 8b] was tested, and the “% Inhibition at 1 μM (SD)” value was 68.34 ± 2.78% and the inhibition at 1 µM was 68%.
Work on `O=C1Cc2cc(C(O)CN3CCC(=C4c5ccc(Cl)cc5CCc5cccnc54)CC3)c(Cl)cc2N1` (centres unmarked) [Compound 9c] yielded an IC50 of 22.2 nM and an inhibition at 1 µM of 93.8 ± 3.13%.
`OC(CN1CCC(=C2c3ccc(Cl)cc3CCc3cccnc32)CC1)c1ccc(Br)cc1` (centres unmarked) [Compound 9a] gave an IC50 of 31.9 nM and an inhibition at 1 µM of 92 ± 1.07%.
Compound `O=C1Cc2cc(C(O)CN3CCC(=C4c5ccc(Cl)cc5CCc5cccnc54)CC3)ccc2N1` (centres unmarked) [Compound 9b] has an IC50 of 21.4 nM and an inhibition at 1 µM of 92.2 ± 1.59%.
Work on `O=C(CN1CCC(=C2c3ccc(Cl)cc3CCc3cccnc32)CC1)c1ccc(Br)cc1` [Compound 8a] yielded an IC50 of 81.4 nM and an inhibition at 1 µM of 83.2 ± 1.98%.
In the case of `Cc1nc2n(c(=O)c1CCN1CCC(=C3c4ccc(Cl)cc4CCc4cccnc43)CC1)CCC[C@H]2O` (single isomer, unassigned) [22 g], the “% Inhibition at 1 μM (SD)” value is reported as 97.17 ± 7.11%.
In the case of `Cc1nc2n(c(=O)c1CCN1CCC(=C3c4ccc(Cl)cc4CCc4cccnc43)CC1)CCC[C@@H]2O` (single isomer, unassigned) [22 f], the “% Inhibition at 1 μM (SD)” value is reported as 96.07 ± 1.87%.
`Cc1nc2n(c(=O)c1CCN1CCC(=C3c4ccccc4CCc4cccnc43)CC1)CCCC2O` (centres unmarked) [Compound 11e] was tested, and the IC50 was 61 nM, the “IC50 (nM)” value was “less potency than compound 11c” and the inhibition at 1 µM was 89.2 ± 11%.
With `Cc1nc2n(c(=O)c1CCN1CCC(=C3c4ccc(Cl)cc4CCc4cccnc43)CC1)CCC[C@H]2O` (single isomer, unassigned) [Compound 22 g] the IC50 was 11.1 nM.
`O=C1Cc2cc(CCN3CCC(=C4c5ccc(Cl)cc5CCc5cccnc54)CC3)c(Cl)cc2N1` [Compound 11a] was tested, and the “% Inhibition at 1 μM (SD)” value was 94.47 ± 1.53%.
`Cc1nc2n(c(=O)c1CCN1CCC(=C3c4ccc(Cl)cc4CCc4cccnc43)CC1)CCC[C@@H]2O` (single isomer, unassigned) [Compound 22 f] gave an IC50 of 10.6 nM.
